Measurements as given in patent US8980946B2, “Treatment of obesity using non-daily administration of 6-O-(4-dimethylaminoethoxy) cinnamoyl fumagillol” (Zafgen, Inc., priority 2010, dated 2015).
Where “and” joins values, the source holds several entries; their conditions need not be identical. Identical values can stand only once. Marks after values point to notes of the source that are not given here.

What was measured:
[1] = Twice weekly intravenous administration to obese patients for 26 days: body weight; type: in vivo, human
Procedure: (§1) The compound was intravenously administered to each patient of a cohort (except for a placebo cohort) twice weekly for 26 days. Each of patients in the three non-placebo cohorts received either 0.1 mg/m^2 (cohort 1); 0.3 mg/m^2 (cohort 2); or 0.9 mg/m^2 (cohort 3) doses of the compound at the time of administration. The trial was conducted under the appropriate government and medical supervision.
Table 1 summarizes body weight determination of the 9 patients in the 0.9 mg/m^2 cohort on the day of the first dose and prior to a second dose administered three or four days later.
(§2) FIG. 1 depicts the body weight change (loss) as a percent before each administration of the twice weekly dose for the 0.9 mg/m^2 cohort. FIG. 2 depicts the Visual Analog Scale reports of hunger decline about 50% following successive biweekly dose administration for the 0.9 mg/m^2 cohort.
All of the subjects of the trial described in Example 1 received doses ranging from 1.8 to 2.2 mg with each administration (given twice weekly). However, weight change was not strictly associated with dose delivered. Instead, response was strongly associated with dose administered per unit excess body weight, as compared to weight change associated with dose delivered per unit body weight.

[2] = Visual Analog Scale of hunger in obese patients, twice weekly dosing; type: in vivo, human; settings: successive twice weekly doses, 0.9 mg/m^2 cohort
Procedure: FIG. 2 depicts visual analogue scale of hunger decline by approximately 50% with body weight change (percent) with twice weekly dosing off 0.1 mg/m^2, 0.3 mg/m^2, and 0.9 mg/m^2 (approximately 1.8 to 2.1 mg) of 6-O-(4-dimethylaminoethoxy)cinnamoyl fumagillol in human patients. Values are means (n=6 per dose level) of changes in fasted Visual Analog Scale scores for each visit day vs. Day 1 for population; p values derived from 2-way ANOVA with Bonferroni post-test comparisons (*, p<0.05; **, p<0.01 vs. placebo).
as §1, §2

[3] = human, in vivo
Procedure: as §1
There was a significant correlation between weight loss of patients and maintained exposure of 0.02 ng/mL of the drug above the level of quantitation of the assay 24 hours after dosing, as shown in FIG. 4 (circled data point is exposure of one poor responder below the level of quantitation of assay). The PK profile at day 26 is representative of steady state (see FIG. 5).

adiponectin = assay: Adiponectin levels in the serum of patients undergoing the trial; type: in vivo, human; settings: with treatment
Procedure: Levels of adiponectin in the serum of patients undergoing the trial were also measured.

Sprague-Dawley male rats = assay: Testis toxicity study, subcutaneous administration daily or every third day for 4 weeks; type: in vivo, rat
Procedure: A testis toxicity study was performed using daily subcutaneous administration or every other day (every third day) subcutaneous administration in rats. […] Additionally, equivalent total exposure using a 3 mg/kg dose administered every third day was compared as well.
64 Sprague-Dawley male rats within ±20% of mean body weight at initiation of dosing were used for the study. Vehicle control or Compound was administered once daily or every 3rd day for 4 weeks, at a volume of 5 mL/kg, as follows, with groups 1-4 for toxicity and groups 5-8 for toxicokinetic studies.
Upon completion of the study, complete necropsy examinations are performed, and the seminal vesicle, testes, and other organs are weighed at terminal necropsy. Terminal body weights are determined just prior to necropsy for assessment of organ weight changes.

[4] = Injection site tolerability; type: in vivo; settings: doses up to 6 mg
[5] = average of 9 patients, 0.9 mg/m^2 cohort, first dose to before second dose
[6] = individual subject, 0.9 mg/m^2 cohort, first dose to before second dose three or four days later
[7] = rat, s.c., 4 weeks, 1 mg/kg daily
[8] = rat, s.c., 4 weeks, 1 mg/kg every 3rd day
[9] = rat, s.c., 4 weeks, 3 mg/kg every 3rd day

With CO[C@@H]1[C@H](OC(=O)/C=C/c2ccc(OCCN(C)C)cc2)CC[C@]2(CO2)[C@H]1[C@@]1(C)O[C@@H]1CC=C(C)C.O=C(O)C(=O)O [6-O-(4-dimethylaminoethoxy)cinnamoyl fumagillol oxalate] the “efficacy (weight loss)” value ([1]; 0.1 and 0.3 mg/m^2 twice weekly) was “Lack of efficacy”, the “dose with which maximum efficacy is obtained” value ([1]; administered biweekly) was roughly 0.02 mg/kg and the “doses at which weight loss efficacy is obtained” value ([1]; administered twice weekly) was no less than 0.02 mg/kg. For the same molecule, the “dose at which weight loss plateaus” value ([1]; administered twice weekly (~1.8 mg dose)) was 0.9 mg/m^2, the “weight loss at follow up check at day 36” value ([1]; after twice weekly regimen over 26 days) was “substantially sustained” and the “Weight Change (%), Average” value [1, 5] was −0.7%. For the same molecule, the “Weight Change (kg), Average” value [1, 5] was -0.7 kg, the “Ending weight (kg), Average” value ([1]; average of 9 patients, 0.9 mg/m^2 cohort, prior to second dose) was 103.9 kg and the “Weight Change” value [1, 6] was 0 kg and −0.5 kg and −0.7 kg and 0.2 kg and −0.6 kg and −1.1 kg (2×) and −0.9 kg and −1.9 kg. The “Weight Change (%)” value [1, 6] was 0.0% and −0.5% and −0.6% (2×) and 0.2% and −1.1% and −0.9% and −1.9% and −1.0%, the “Ending weight” value ([1]; individual subject, 0.9 mg/m^2 cohort, prior to second dose three or four days after first dose) was 107.9 kg and 105 kg and 118 kg and 96.2 kg and 95.7 kg and 100.4 kg and 103.7 kg and 100.5 kg and 107.5 kg and the “dose per kg of excess body weight to be exceeded to see effects” value ([1]; obese patients, twice weekly) was > 40 μg of drug per kg of excess body weight. The “number of patients showing greater than 3-4 percent body weight loss” value ([1]; of the 9 subjects at 0.9 mg/m^2, twice weekly, over 26 days of exposure) was 7, the “duration of weight reduction after single administration” value ([1]; single administration of 0.9 mg/m2 dose) was 4 days and the “Visual Analog Scale hunger decline” value [2] was “about 50%”. The “Visual Analog Scale hunger decline” value ([2]; listed as 6-O-(4-dimethylaminoethoxy)cinnamoyl fumagillol) was “approximately 50%”, the “drug exposure at 24 hours post dose associated with weight loss” value [3] was “above 0.02 ng/mL” and the “AUC (0-24 hr) measured range” value ([3]; iv, 0.9 mg/m2) was 8.57 to 13.6 ng·h/mL. For the same molecule, the “T1/2 (H) λz (terminal)” value ([3]; iv, 0.9 mg/m2) was 5.41±2.82 H, the “average AUC (0-24 hr)” value ([3]; iv, 0.9 mg/m2) was 10.5 ng·h/mL and the “average AUC (0-∞)” value ([3]; iv, 0.9 mg/m2) was 11 ng·h/mL. For the same molecule, the “average Cmax” value ([3]; iv, 0.9 mg/m2) was 2.1 ng/mL, the terminal half life ([3]; iv, 0.9 mg/m2) was 5.4 h and the “increase of adiponectin concentrations” value (adiponectin) was “over 60%”. The “Clinical Chemistry findings” value (Sprague-Dawley male rats; rat, 1 mg/kg Q3D) was “No findings”, the Hematology findings (Sprague-Dawley male rats; rat, 1 mg/kg Q3D) was “No findings” and the Macroscopic findings (Sprague-Dawley male rats; rat, 1 mg/kg Q3D) was “No findings”. For the same molecule, the Microscopic findings (Sprague-Dawley male rats; rat, 1 mg/kg Q3D) was “No findings”, the Organ weight findings (Sprague-Dawley male rats; rat, 1 mg/kg Q3D) was “No findings” and the “Clinical Chemistry: Higher albumin/globulin” value (Sprague-Dawley male rats; rat, 1 mg/kg/day) was “Higher albumin/globulin (1.12X)”. For the same molecule, the “Clinical Chemistry: Higher potassium” value (Sprague-Dawley male rats; rat, 1 mg/kg/day) was “Higher potassium (1.2X)”, the “Clinical Chemistry: Reduced Inorg phosphate” value (Sprague-Dawley male rats; rat, 1 mg/kg/day) was “Reduced Inorg phosphate (0.96 X)” and the “Clinical Chemistry: Reduced alk phos” value (Sprague-Dawley male rats; rat, 1 mg/kg/day) was “Reduced alk phos (0.72X)”. The Hematology findings (Sprague-Dawley male rats; rat, 1 mg/kg/day) was “Reduced blood cell counts”, the “Hematology: Basophil” value (Sprague-Dawley male rats; rat, 1 mg/kg/day) was 0.55 X and the “Hematology: Eosinophil” value (Sprague-Dawley male rats; rat, 1 mg/kg/day) was 0.75 X. For the same molecule, the “Hematology: Large unstained cell” value (Sprague-Dawley male rats; rat, 1 mg/kg/day) was “(0.67X)”, the “Hematology: Lymphocyte” value (Sprague-Dawley male rats; rat, 1 mg/kg/day) was 0.65 X and the “Hematology: Monocyte” value (Sprague-Dawley male rats; rat, 1 mg/kg/day) was 0.79 X. The “Hematology: Neutrophil” value (Sprague-Dawley male rats; rat, 1 mg/kg/day) was 0.83 X, the “Hematology: WBC” value (Sprague-Dawley male rats; rat, 1 mg/kg/day) was 0.68 X and the Macroscopic findings (Sprague-Dawley male rats; rat, 1 mg/kg/day) was “Smaller testes and epididymides”. For the same molecule, the “Microscopic findings, lymph node” value (Sprague-Dawley male rats; rat, 1 mg/kg/day) was “Lymph node atrophy”, the “Microscopic: Germ cell depletion/degeneration (incidence)” value (Sprague-Dawley male rats; rat, 1 mg/kg/day) was “Germ cell depletion/degeneration 9/10” and the “Organ weight: Adrenal” value (Sprague-Dawley male rats; rat, 1 mg/kg/day) was “(1.24X)”. For the same molecule, the “Organ weight: Brain” value (Sprague-Dawley male rats; rat, 1 mg/kg/day) was 1.15 X, the “Organ weight: Epididymides” value (Sprague-Dawley male rats; rat, 1 mg/kg/day) was 0.88 X and the “Organ weight: Liver” value (Sprague-Dawley male rats; rat, 1 mg/kg/day) was 0.85 X. The “Organ weight: Prostate” value (Sprague-Dawley male rats; rat, 1 mg/kg/day) was 0.83 X, the “Organ weight: Salivary gland” value (Sprague-Dawley male rats; rat, 1 mg/kg/day) was 0.87 X and the “Organ weight: Seminal vesicle” value (Sprague-Dawley male rats; rat, 1 mg/kg/day) was 0.79 X. For the same molecule, the “Organ weight: Spleen” value (Sprague-Dawley male rats; rat, 1 mg/kg/day) was 0.71 X, the “Organ weight: Testes” value (Sprague-Dawley male rats; rat, 1 mg/kg/day) was 0.83 X and the “Organ weight: Thymus” value (Sprague-Dawley male rats; rat, 1 mg/kg/day) was 0.86 X. The “Organ weight: Thyroid” value (Sprague-Dawley male rats; rat, 1 mg/kg/day) was 0.82 X, the overall findings (Sprague-Dawley male rats; rat, 1 mg/kg/day) was “adverse findings (e.g. blood dyscrasias and/or irreversible testis lesions)” and the “Clinical Chemistry: Higher albumin/globulin” value (Sprague-Dawley male rats; rat, 3 mg/kg Q3D) was “(1.09X)”. The Hematology findings (Sprague-Dawley male rats; rat, 3 mg/kg Q3D) was “No findings”, the Macroscopic findings (Sprague-Dawley male rats; rat, 3 mg/kg Q3D) was “No findings” and the Microscopic findings (Sprague-Dawley male rats; rat, 3 mg/kg Q3D) was “No findings”. The Organ weight findings (Sprague-Dawley male rats; rat, 3 mg/kg Q3D) was “No findings”, the animal weight (Sprague-Dawley male rats; rat, 3 mg/kg every three days) was “reduces animal weight significantly” and the overall findings (Sprague-Dawley male rats; rat, 3 mg/kg every three days) was “does not show any significant adverse findings”. For the same molecule, the “Epididymides absolute weight” value (Sprague-Dawley male rats; [7]) was 1.130 g, the “Prostate absolute weight” value (Sprague-Dawley male rats; [7]) was 0.546 g and the “Seminal Vesicles absolute weight (g)” value (Sprague-Dawley male rats; [7]) was 1.201** g. For the same molecule, the “Testes absolute weight (g)” value (Sprague-Dawley male rats; [7]) was 2.569* g, the “Thymus absolute weight” value (Sprague-Dawley male rats; [7]) was 0.343 g and the “Epididymides absolute weight” value (Sprague-Dawley male rats; [8]) was 1.249 g. For the same molecule, the “Prostate absolute weight” value (Sprague-Dawley male rats; [8]) was 0.710 g, the “Seminal Vesicles absolute weight” value (Sprague-Dawley male rats; [8]) was 1.523 g and the “Testes absolute weight” value (Sprague-Dawley male rats; [8]) was 3.097 g. The “Thymus absolute weight” value (Sprague-Dawley male rats; [8]) was 0.421 g, the “Epididymides absolute weight” value (Sprague-Dawley male rats; [9]) was 1.267 g and the “Prostate absolute weight” value (Sprague-Dawley male rats; [9]) was 0.663 g. For the same molecule, the “Testes absolute weight” value (Sprague-Dawley male rats; [9]) was 3.273 g, the “Thymus absolute weight” value (Sprague-Dawley male rats; [9]) was 0.423 g and the “tissue weight effects (testes and seminal vesicle weights)” value (Sprague-Dawley male rats; rats administered with less frequent dosing (every third day)) was “no tissue weight effects”. The injection site tolerability [4] was “acceptable”.
